# Assay results taken from patent US10220040B2, “Compounds, compositions and methods useful for cholesterol mobilization” (Cerenis Therapeutics Holding SA, priority 2010, dated 2019).
# Legend:
# [1] = tested on: apoE−/− mice; experiment: ApoE−/− high-cholesterol diet model (aorta plaque progression); format: in vivo; conditions: 8 weeks diet then 4 weeks 100 μg/kg/day
# Protocol: FIG. 19A-L: Effect of P2Y13 agonist on atherosclerotic plaque progression in aortas of apoE^−/− mice. ApoE^−/− mice (n=20) were placed on a Western diet for 8 weeks followed by a 4 weeks oral gavage of vehicle or 100 μg/kg of Compound IIa. Aortas (n=10) were lipid extracted in 2:1 chloroform/methanol. FIG. 19A: the concentrations in total cholesterol were measured by HPLC and GC/MS and compared to parallel apoE−/− mice (n=10) on normal Chow diet as a baseline. FIG. 19B: quantification of the intima/media ratio (n=10). FIG. 19C: F4/80 antibody staining quantification (n=10). FIG. 19D: Oil Red O positive staining quantification (n=10). FIG. 19E: quantification of Sirius Red staining (n=10). FIG. 19F: anti-VCAM1 antibody staining quantification (n=10). The quantifications were expressed as the percentage of staining as compared to the sum of the intima and media area. *p<0.05. FIG. 19G to FIG. 19L: typical example of staining of aorta slides used for the quantifications. FIG. 19G and FIG. 19J: hematoxylin eosin staining of transversal sections of apoE^−/− mice aortas. FIG. 19H and FIG. 19K: Oil Red O staining of transversal sections of apoE^−/− mice aortas. FIG. 19I and FIG. 19L: VCAM1 antibody staining of transversal sections of apoE^−/− mice aortas.
# Mice were placed for two month on Western diet (0.2% cholesterol, 21% butter milk) then dosed with Compound IIa once a day at 100 μg/kg (0.5% CMC, 0.2% Tween80) for 4 more weeks. The mice were sacrificed and the aortas were collected for biochemical and immunohistological characterizations. One set of aorta (n=10) was detached at the base of the heart and placed in a glass tube with 3 ml of chloroform-methanol 2:1 (v/v), and stigmasterol as the internal standard. Then analyzed as described above. Another set of aortas (n=10) were first extensively washed with PBS, then with 4% paraformaldehyde (500 μl) and finally with tissue tek OCT (500 μl). Next the aorta was embedded in OCT and frozen at −20° C. Three step frozen sections of 10 μm separated one from the other were processed and stained with Oil red O (ORO), Sirius red and hematoxylin/eosin. Macrophages were detected using F4/80 primary rat monoclonal antibody (Abcam) and VCAM was detected using rat anti mouse CD106 (AbDSerotec).
# The prevention of progression of the plaque in aorta was further evaluated in the cholesterol diet-fed apoE−/− mice (FIG. 19). […] The collagen content of the wall was improved (FIG. 19E).
# [2] = tested on: New Zealand rabbits; experiment: Plaque regression in high-cholesterol diet fed New Zealand rabbits; format: in vivo, rabbit
# Protocol: FIG. 20A-M: Plaque regression in rabbits treated with Compound IIa. New Zealand rabbits (n=15) with atherosclerotic plaques developed after 2 months of high-cholesterol diet, were treated with Compound IIa at 30, 100 and 300 μg/kg once a day by oral gavage for 4 weeks. FIG. 20A: lipids extracted from aortas were analyzed by GC/MS for cholesterol concentration. Dark bars, unesterified cholesterol; superimposed gray bars, total cholesterol. *p<0.05. FIG. 20B, FIG. 20C and FIG. 20D: Plasma VLDL cholesterol, LDL cholesterol and HDL cholesterol were resolved as described in FIG. 2. The results are expressed as the percentage from pre-dose. FIG. 20E: apoB concentration in plasma was determined by Western blot analysis. FIG. 20F: triglycerides were measured in the plasma using the kit from Biolabo. FIG. 20G: the bile acids concentrations in liver were determined using an enzymatic kit. FIG. 20H and FIG. 20K: hematoxylin/eosin staining of aortas from rabbits dosed with vehicle (FIG. 20H) or Compound IIa at 300 μg/kg (FIG. 20K). FIG. 20I and FIG. 20L: smooth muscle cells staining of aortas from rabbits dosed with vehicle (FIG. 20I) or Compound IIa at 300 μg/kg (FIG. 20L). FIG. 20J and FIG. 20M: macrophages and monocytes staining of aortas from rabbits dosed with vehicle (FIG. 20J) or Compound IIa at 300 μg/kg (FIG. 20M).
# FIG. 21A-F: Functionality of plasma from high-cholesterol diet fed rabbits treated with Compound IIa. FIG. 21A: ApoA-I concentration in plasma was measured by SELDI-TOF analysis. Purified ApoA-I from homo-sapiens (MWSELDI=28083 Da) was used as a reference for determination of rabbit ApoA-I (MWSELDI=27838 Da) concentration. The results are expressed as the percentage from pre-dose. FIG. 21B: ApoA-I mRNA level was determined using the QPCR technique. Note the overall decrease in the HDL particle size of treated animals. FIG. 21C; HDL from rabbit plasma were separated according to the size of the different HDL particles using the Lipoprint® system. The data were expressed as the percentage for each HDL subpopulation set to the HDL population in the pre-dose animals. Two main HDL particle sub-populations were quantified (high and intermediate—dark and gray bars respectively). FIG. 21D: example of lipoprotein profiles of rabbit treated with vehicle (gray line) and with Compound IIa (300 μg/kg, dark line) using the Lipoprint® separation technique. FIG. 21E and FIG. 21F: determination of cholesterol efflux capacity of plasma and rabbit HDL, respectively, using pre-loaded [^3H]-cholesterol-oxLDL macrophages. The results are expressed as a percentage of cholesterol efflux. *p<0.05, **p<0.005.
# After 2 months of High Cholesterol Diet feeding (0.5% cholesterol) and a wash-out period of 2 weeks, the animals were treated (by oral gavage) once day with Compound IIa at 30, 100 and 300 μg/kg for 4 weeks. Blood samples were collected before the dose administration on day 0 and after 4 weeks of administrations of Compound IIa. After final bleeding, the liver, gallbladder, heart, thoracic and abdominal aorta from heart (left ventricle) to iliac arteries were sampled.
# Rabbit aortas were fixed in neutral formalin buffer and embedded in paraffin. Longitudinal 3 μm sections were stained with Hematoxylin-Eosin-Saffron for histology analysis. The tissue sections were deparaffinized and incubated in protein-free block to inhibit the nonspecific binding of primary monoclonal antibodies used for the immunostaining of rabbit monocytes and macrophages (RAM11 obtained from Dako Corp. 1:100 dilution) and smooth muscle cell-specific actin (HHF35 obtained from Dako Corp. 1:100 dilution). Secondary biotinylated […] antibody was used at 1:300 dilution (Dako).
# The issue of whether stimulation of the P2Y13r pathway could affect the regression of atherosclerosis pre-induced in the high-cholesterol diet fed rabbits was also addressed. […]
# [3] = orally, up to 0.3 mg/kg for 4 weeks
compound,measurement,setting,value
"CN(C)c1ncc(CN2CCC(c3cc(O)nc(N4CCOCC4)n3)CC2)cn1 [Compound IIa, 6-[1-(2-Dimethylaminopyrimidin-5-ylmethyl)-piperidin-4-yl]-2-morpholin-4-yl-pyrimidin-4-ol]",VCAM1 expression (antibody CD106),[1],significant decreases
same,cholesterol content of aorta,[1],significant decreases
same,collagen content of the wall,[1],improved
same,lipid staining of aorta,[1],decrease
same,macrophage content (F4/80 antibody) of the aortic wall and the plaque,[1],decreased
same,plaque area in aorta,[1],significant decreases
same,regression of atherosclerotic plaques in aorta (decrease of cholesterol content of the entire artery),"[2]; orally, doses up to 0.3 mg/kg for 4 weeks",30%
same,"HDL cholesterol and rabbit apoA-I (HPLC, SELDI-TOF)",[2]; [3],trend towards an increase
same,VLDL and LDL cholesterol,[2]; [3],decreased slightly
same,pre-established atherosclerotic plaques in aortas of rabbits fed with cholesterol chow,[2]; summary statement,induced the regression
same,apoA-I mRNA expression in the liver,[2]; treated rabbits,increase
same,bile acid content in the liver,[2]; treated rabbits,increased
same,mRNA expressions of LDL receptors and SR-BI in the liver (QPCR),[2]; treated rabbits,No change
same,plasma apoA-I,[2]; treated rabbits,increase
